Measured values reported in patent publication US11458189B2, “Cytoprotective drugs” (BALMES TRANSPLANTATION, priority 2017, dated 2022).
Starred links: 1 amine or outer side, 2 acyl side, 3 side chain; linkers in the order of their positions; H or OH if unused. Positions of bridges follow the written chain, without caps; N, C: chain ends. Non-standard residues stand in square brackets, D forms with d. Residues, ends and D or L forms follow the SMILES beside them. *: point of attachment. hTyr(3S-OH,4S-OH,3'-OSO3H) = N[C@H](C(=O)O)[C@H](O)[C@@H](O)c1ccc(O)c(OS(=O)(=O)O)c1; Orn(4R-OH,5R-OH) = O=C([C@H](C[C@@H](O)[C@@H](O)N[*:3])N[*:1])[*:2]; Pro(3S-OH,4S-Me) = C[C@H]1CN[C@H](C(=O)O)[C@H]1O; X1 = CCCCCOc1ccc(-c2cc(-c3ccc(C(=O)*)cc3)no2)cc1; Gln(3R-OH) = NC(=O)C[C@@H](O)[C@H](N)C(=O)O; Hyp = O=C(O)[C@@H]1C[C@@H](O)CN1

System: Bovine Brain Microvascular Endothelial Cells (BBMEC)
Assay: Oxygen and glucose deprivation followed by replenishment, cell survival (calcein AM), BBMEC
Format: cell-based
Protocol: Anidulafungin and micafungin were tested on Human Renal Glomerular Endothelial Cells (HRGEC, Innoprot P10665), on Human Renal Proximal Tubular Epithelial Cells (HRPTEpiC, Innoprot P10662), on Human Astrocytes (HA, caltag SC-1800), on Human Cardiac Microvascular Endothelial Cells (HCMEC, Caltag SC-6000), on Human Hepatic Sinusoidal Endothelial Cells (HHSEC, Caltag SC-5000), on Rat Primary Kidney Glomerular Endothelial cells (Cellbiologics, RN-6014G) and on Bovine Brain Microvascular Endothelial Cells (BBMEC, Caltag SC-B100).
In a first phase, these isolated, purified and cryopreserved cells are thawed and multiplied according to the supplier's recommendations in T75 or T175 flasks pre-coated with 2 μg of fibronectin/[…] (CORNING) for HRGEC, HCMEC, HHSEC and BBMEC, or 2 μg poly-L-lysin/cm^2 (Caltag SC-0403) for HRPTEpiC and HA, or 15 mL/flask 175 cm^2 gelatin-based solution (Cellbiologics) in the presence of endothelial cell supplemented growth medium ECM (P60104, INNOPROT, Caltag, SC-1001) for HRGEC, HCMEC, HHSEC, RPKGEC or BBMEC, or astrocyte cell supplemented growth medium AM (Caltag SC-1801) for HA or epithelial cell supplemented growth medium EpiCM (P60106, INNOPROT) for HRPTEpiC, at 37° C. under 5% CO2 and saturated humidity until their confluency. They are then harvested by trypsinization according to the method described by the supplier for exactly 5 minutes and then reseeded in new flasks a maximum of three times.
To carry out the oxygen and glucose deprivation test followed by their replenishment, the cells will be seeded in 96-well black plates with transparent flat bottom (GREINER). Once a sufficient number of cells has been obtained to allow seeding of 2000 to 15000 cells per well of 96-well plates depending on the cell type, the cells are seeded in these 96-well plates previously coated with an extracellular matrix as listed above for the flasks. The cells are cultured for 5 to 8 days according to the cell type, in the presence of the same growth medium as in the flask as described above except for HRGEC and HRPTEpiC for which DMEM (DUTSCHER) with 1 g/L of supplemented glucose is used, at 37° C. under 5% CO2 and saturated humidity to obtain confluency.
On the first day of oxygen and glucose deprivation, (5th, 6th, 7th or 8th day of culture), the culture conditions are drastically changed. The medium of all plates is removed and replaced by DMEM (DUTSCHER) medium without glucose and supplemented only with 1% penicillin-streptomycin (DUTSCHER). Anidulafungin or micafungin dissolved in dimethyl sulfoxide (DMSO) is then added to each well at the desired concentration, resulting in a maximum of 1% DMSO, and the plates are placed under hypoxia at <1% 02 and 5% CO2 at 37° C. for 24 hours of culture. Each compound was tested in a concentration range.
After 24 hours, the growth medium is changed and replaced by a richer medium, DMEM (DUTSCHER) at 1 g/L glucose and 2% FBS (INNOPROT) and 1% penicillin-streptomycin (DUTSCHER). These media will have been pre-equilibrated at 37° C. in advance. The cells are then returned to culture at 37° C. under 20% 02 and 5% CO2 for 22h.
After 22 hours of reoxygenation, the potential protective effect of anidulafungin or micafungin is measured by a cell viability test using calcein AM (CORNING), which is a dye substrate. The calcein AM can easily cross the cell membrane of the viable cells. The AM ester groups mask the part of the molecule that chelates calcium. Once inside the cells, the (non-fluorescent) calcein AM is hydrolyzed to (fluorescent) calcein by endogenous esterases. The resulting calcein molecule binds to calcium inside the cell and remains trapped inside the cell. These molecules emit strong green fluorescence when subjected to […] of a particular wavelength (495 nm). Since dead cells lack esterase activity, only living cells are labelled.
This cell viability test is performed in two steps. […]

Structure (SMILES): CCCCCOc1ccc(-c2cc(-c3ccc(C(=O)N[C@H]4C[C@@H](O)[C@@H](O)NC(=O)[C@@H]5[C@@H](O)[C@@H](C)CN5C(=O)[C@H]([C@H](O)CC(N)=O)NC(=O)[C@H]([C@H](O)[C@@H](O)c5ccc(O)c(OS(=O)(=O)O)c5)NC(=O)[C@@H]5C[C@@H](O)CN5C(=O)[C@H]([C@@H](C)O)NC4=O)cc3)no2)cc1 [Micafungin, {5-[(1S,2S)-2-[(3S,6S,9S,11R,15S,18S,20R,21R,24S,25S,26S)-3-[(1R)-2-carbamoyl-1-hydroxyethyl]-11,20,21,25-tetrahydroxy-15-[(1R)-1-hydroxyethyl]-26-methyl-2,5,8,14,17,23-hexaoxo-18-[(4-{5-[4-(pentyloxy)phenyl]-1,2-oxazol-3-yl}benzene)amido]-1,4,7,13,16,22-hexaazatricyclo[22.3.0.0]heptacosan-6-yl]-1,2-dihydroxyethyl]-2-hydroxyphenyl}oxidanesulfonic acid] (X1-[Orn(4R-OH,5R-OH)]T[Hyp][hTyr(3S-OH,4S-OH,3'-OSO3H)][Gln(3R-OH)][Pro(3S-OH,4S-Me)]; lactam 1-C)
- Globalfluo assay 1 ([Micafungin] log μM 0): 1369504 arbitrary units
- Globalfluo assay 2 ([Micafungin] log μM 0): 1354112 arbitrary units
- Globalfluo assay 3 ([Micafungin] log μM 0): 1230715 arbitrary units
- Mean globalfluo ([Micafungin] log μM 0): 1318110 arbitrary units
- Survival rate (%) ([Micafungin] log μM 0): 23%
- Globalfluo assay 1 ([Micafungin] log μM 0.4771213): 2106751 arbitrary units
- Globalfluo assay 2 ([Micafungin] log μM 0.4771213): 1655153 arbitrary units
- Globalfluo assay 3 ([Micafungin] log μM 0.4771213): 1618365 arbitrary units
- Mean globalfluo ([Micafungin] log μM 0.4771213): 1793423 arbitrary units
- Survival rate (%) ([Micafungin] log μM 0.4771213): 46%
- Globalfluo assay 1 ([Micafungin] log μM 0.7781513): 1732851 arbitrary units
- Globalfluo assay 2 ([Micafungin] log μM 0.7781513): 1742799 arbitrary units
- Globalfluo assay 3 ([Micafungin] log μM 0.7781513): 1796080 arbitrary units
- Mean globalfluo ([Micafungin] log μM 0.7781513): 1757243 arbitrary units
- Survival rate (%) ([Micafungin] log μM 0.7781513): 44%
- Globalfluo assay 1 ([Micafungin] log μM 0.90309): 3787727 arbitrary units
- Globalfluo assay 2 ([Micafungin] log μM 0.90309): 1942995 arbitrary units
- Globalfluo assay 3 ([Micafungin] log μM 0.90309): 2729816 arbitrary units
- Mean globalfluo ([Micafungin] log μM 0.90309): 2820179 arbitrary units
- Survival rate (%) ([Micafungin] log μM 0.90309): 96%
- Globalfluo assay 1 ([Micafungin] log μM 1): 3519337 arbitrary units
- Globalfluo assay 2 ([Micafungin] log μM 1): 3058877 arbitrary units
- Globalfluo assay 3 ([Micafungin] log μM 1): 3179364 arbitrary units
- Mean globalfluo ([Micafungin] log μM 1): 3252526 arbitrary units
- Survival rate (%) ([Micafungin] log μM 1): 117%
- Globalfluo assay 1 ([Micafungin] log μM 1.079181): 2865371 arbitrary units
- Globalfluo assay 2 ([Micafungin] log μM 1.079181): 2913567 arbitrary units
- Globalfluo assay 3 ([Micafungin] log μM 1.079181): 3561196 arbitrary units
- Mean globalfluo ([Micafungin] log μM 1.079181): 3113378 arbitrary units
- Survival rate (%) ([Micafungin] log μM 1.079181): 110%
- Globalfluo assay 1 ([Micafungin] log μM 1.176091): 2994828 arbitrary units
- Globalfluo assay 2 ([Micafungin] log μM 1.176091): 3496204 arbitrary units
- Globalfluo assay 3 ([Micafungin] log μM 1.176091): 3106542 arbitrary units
- Mean globalfluo ([Micafungin] log μM 1.176091): 3199191 arbitrary units
- Survival rate (%) ([Micafungin] log μM 1.176091): 114%
- Globalfluo assay 1 ([Micafungin] log μM 1.30103): 3526958 arbitrary units
- Globalfluo assay 2 ([Micafungin] log μM 1.30103): 3025877 arbitrary units
- Globalfluo assay 3 ([Micafungin] log μM 1.30103): 3586726 arbitrary units
- Mean globalfluo ([Micafungin] log μM 1.30103): 3379854 arbitrary units
- Survival rate (%) ([Micafungin] log μM 1.30103): 123%
- Globalfluo assay 1 ([Micafungin] log μM 1.477121): 2506989 arbitrary units
- Globalfluo assay 2 ([Micafungin] log μM 1.477121): 2361926 arbitrary units
- Globalfluo assay 3 ([Micafungin] log μM 1.477121): 2557219 arbitrary units
- Mean globalfluo ([Micafungin] log μM 1.477121): 2475378 arbitrary units
- Survival rate (%) ([Micafungin] log μM 1.477121): 79%
- Globalfluo assay 1 ([Micafungin] log μM −0.5228788): 1907644 arbitrary units
- Globalfluo assay 2 ([Micafungin] log μM −0.5228788): 993296 arbitrary units
- Globalfluo assay 3 ([Micafungin] log μM −0.5228788): 1867099 arbitrary units
- Mean globalfluo ([Micafungin] log μM −0.5228788): 1589346 arbitrary units
- Survival rate (%) ([Micafungin] log μM −0.5228788): 36%
- Globalfluo assay 1 ([Micafungin] log μM −1): 1108584 arbitrary units
- Globalfluo assay 2 ([Micafungin] log μM −1): 1249769 arbitrary units
- Globalfluo assay 3 ([Micafungin] log μM −1): 1224251 arbitrary units
- Mean globalfluo ([Micafungin] log μM −1): 1194201 arbitrary units
- Survival rate (%) ([Micafungin] log μM −1): 17%
- Globalfluo assay 1 ([Micafungin] log μM −2): 1778372 arbitrary units
- Globalfluo assay 2 ([Micafungin] log μM −2): 817005 arbitrary units
- Globalfluo assay 3 ([Micafungin] log μM −2): 1173090 arbitrary units
- Mean globalfluo ([Micafungin] log μM −2): 1256156 arbitrary units
- Survival rate (%) ([Micafungin] log μM −2): 20%
